# Data: patent publication US7601868B2, “Amine derivative” (Takeda Pharmaceutical Company Limited, priority 2003, dated 2009)
row,Structure (SMILES),melting point [°C]
1,"O=C(NCCc1ccc(CN2CCCC2)cc1)N1CCC(c2ccc(Cl)cc2)CC1 [Example 1, 4-(4-chlorophenyl)-N-{2-[4-(1-pyrrolidinylmethyl)phenyl]ethyl}-1-piperidinecarboxamide]",116 to 117
2,"CC(CNC(=O)c1ccc(Br)cc1F)c1ccc(CN2CCCC2)cc1 (stereo not shown) [Example 5, 4-bromo-2-fluoro-N-{2-[4-(1-pyrrolidinylmethyl)phenyl]propyl}benzamide]",80 to 82
3,"CC(c1ccc(CCNC(=O)c2ccc(Br)cc2)cc1)N1CCCC1 (stereo not shown) [Example 10, 4-bromo-N-(2-{4-[1-(1-pyrrolidinyl)ethyl]phenyl}ethyl)benzamide]",124 to 126
4,"CC(c1ccc(CCNC(=O)c2ccc(-c3ccc(Cl)cc3)cc2)cc1)N1CCCC1 (stereo not shown) [Example 11, 4′-chloro-N-(2-{4-[1-(1-pyrrolidinyl)ethyl]phenyl}ethyl)[1,1′-biphenyl]-4-carboxamide]",152 to 153
5,"COc1ccc(-c2ccc(C(=O)NCCc3ccc(C(C)N4CCCC4)cc3)cc2)cc1 (stereo not shown) [Example 12, 4′-methoxy-N-(2-{4-[1-(1-pyrrolidinyl)ethyl]phenyl}ethyl)[1,1′-biphenyl]-4-carboxamide]",163 to 165
6,"CC(c1ccc(CCNC(=O)c2ccc(-c3ccc(F)cc3)cc2)cc1)N1CCCC1 (stereo not shown) [Example 13, 4′-fluoro-N-(2-{4-[1-(1-pyrrolidinyl)ethyl]phenyl}ethyl)[1,1′-biphenyl]-4-carboxamide]",141 to 143
7,"CC(c1ccc(CCNC(=O)c2ccc(-c3ccc(C(F)(F)F)cc3)cc2)cc1)N1CCCC1 (stereo not shown) [Example 15, N-(2-{4-[1-(1-pyrrolidinyl)ethyl]phenyl}ethyl)-4′-(trifluoromethyl)[1,1′-biphenyl]-4-carboxamide]",149 to 151
8,"CC(c1ccc(CCNC(=O)c2ccc(-c3ccccc3)cc2)cc1)N1CCCC1 (stereo not shown) [Example 31, N-(2-{4-[1-(1-pyrrolidinyl)ethyl]phenyl}ethyl)[1,1′-biphenyl]-4-carboxamide]",136 to 138

# Results, then the compound that gave them:
row,melting point [°C],Structure (SMILES)
1,91 to 93,"CCCCCc1ccc(C(=O)NCCc2ccc(CN3CCCC3)cc2)cc1 [Example 3, 4-pentyl-N-{2-[4-(1-pyrrolidinylmethyl)phenyl]ethyl}benzamide]"
2,115 to 117,"CCCC(=O)Cc1ccc(C(=O)NCCc2ccc(CN3CCCC3)cc2)cc1 [Example 4, 4-(2-oxopentyl)-N-{2-[4-(1-pyrrolidinylmethyl)phenyl]ethyl}benzamide]"
3,119 to 121,"CC(CNC(=O)c1ccc(-c2ccc(Cl)cc2)cc1F)c1ccc(CN2CCCC2)cc1 (stereo not shown) [Example 6, 4′-chloro-3-fluoro-N-{2-[4-(1-pyrrolidinylmethyl)phenyl]propyl}[1,1′-biphenyl]-4-carboxamide]"
4,156 to 157,"CC(CNC(=O)c1ccc(-c2ccc(Cl)cc2)cc1)c1ccc(CN2CCCC2)cc1 (stereo not shown) [Example 8, 4′-chloro-N-{2-[4-(1-pyrrolidinylmethyl)phenyl]propyl}[1,1′-biphenyl]-4-carboxamide]"
5,91 to 92,"CCCCCc1ccc(C(=O)NCC(C)c2ccc(CN3CCCC3)cc2)cc1 (stereo not shown) [Example 9, 4-pentyl-N-{2-[4-(1-pyrrolidinylmethyl)phenyl]propyl}benzamide]"
6,160 to 163,"Cc1ccc(-c2ccc(C(=O)NCCc3ccc(C(C)N4CCCC4)cc3)cc2)cc1 (stereo not shown) [Example 14, 4′-methyl-N-(2-{4-[1-(1-pyrrolidinyl)ethyl]phenyl}ethyl)[1,1′-biphenyl]-4-carboxamide]"
7,135 to 137,"CC(c1ccc(CCNC(=O)c2ccc(-c3ccc(OC(F)(F)F)cc3)cc2)cc1)N1CCCC1 (stereo not shown) [Example 16, N-(2-{4-[1-(1-pyrrolidinyl)ethyl]phenyl}ethyl)-4′-(trifluoromethoxy)[1,1′-biphenyl]-4-carboxamide]"
8,90 to 92,"CCC(c1ccc(CCNC(=O)c2ccc(Br)cc2)cc1)N1CCCC1 (stereo not shown) [Example 32, 4-bromo-N-(2-{4-[1-(1-pyrrolidinyl)propyl]phenyl}ethyl)benzamide]"
